Read-outs that look alike come from different tables or passages of the source.
Experiments:
[1] = tested on: MNH 46686 strain; assay: Antibiotic susceptibility test by disk diffusion method; assay type: cell-based, Lachnospiraceae sp. MNH 46686; details: for Diameter of inhibition zone: against MNH 46686 strain
From the text: 2.4 Antibiotic Susceptibility Test of MNH 46686 Strain by Disk Diffusion Method

[2] = tested on: IFNβ; assay: THP-1 IFNβ-promoter reporter (luciferase) assay; assay type: cell-based; details: 20 μM, 40 μM and 80 μM, 24 h
From the text: Interferon (IFN) […] are a group of cytokines secreted by host cells, which can regulate immune responses. Interferons are produced under stimulation by viruses, bacterial endotoxins, synthetic double-stranded RNAs, etc. Macrophages, lymphocytes, somatic cells, etc., in the human body can all produce interferons, in which IFNβ belongs to type I interferons and can promote the activities of NK cells, macrophages, and T lymphocytes. […] Furthermore, the MNH 46686 strain of the present disclosure has been experimentally verified to be able to promote the expression of IFNβ, thereby exerting anti-viral, anti-tumor, immunomodulatory, and other effects. In order to verify whether MNH 46686 can promote the expression of IFNβ, the constructed THP-1 cells (a cell line established by Moon Co.) carrying the IFNβ-promoter reporter were used in this study to evaluate the effect of MNH 46686 on the transcriptional activity of IFNβ. […]
The THP-1-IFNβ-promoter reporter cells were inoculated in a 96-well plate, with 1×10^5 cells per well. […] The chemiluminescence values were detected with a microplate reader. The relative luminescence values were normalized to the untreated group and compared with the relative luminescence readings of the High group to evaluate the effect of MNH 46686 on the transcriptional activity of IFNβ.

Molecule	Note (susceptibility of MNH 46686 strain to the antibiotic) [1]	Diameter of inhibition zone [1] [mm]	also measured
CCC[C@@H]1C[C@@H](C(=O)N[C@@H]([C@H]2O[C@H](SC)[C@H](O)[C@@H](O)[C@H]2O)[C@@H](C)O)N(C)C1 [Lincomycin]	Resistant	0.00	Note (susceptibility of MNH 46686 strain to the antibiotic) ([1]; listed as lincomycin): resistant
CC1(C)S[C@@H]2[C@H](NC(=O)[C@H](N)c3ccccc3)C(=O)N2[C@H]1C(=O)O [Ampicillin]	Resistant	0.00	Note (susceptibility of MNH 46686 strain to the antibiotic) ([1]; listed as ampicillin): resistant
COc1cc2cc(C(=O)CCC(=O)O)sc2cc1OC [MSA-2]	–	–	response of the IFNβ reporter system to the positive drug [2]: good response
CC[C@H]1OC(=O)[C@H](C)[C@@H](O[C@H]2C[C@@](C)(OC)[C@@H](O)[C@H](C)O2)[C@H](C)[C@@H](O[C@@H]2O[C@H](C)C[C@H](N(C)C)[C@H]2O)[C@](C)(O)C[C@@H](C)C(=O)[C@H](C)[C@@H](O)[C@]1(C)O [Erythromycin]	Resistant	0.00	Note (susceptibility of MNH 46686 strain to the antibiotic) ([1]; listed as erythromycin): resistant
Gentamicin	Sensitive	10.90	Note (susceptibility of MNH 46686 strain to the antibiotic) ([1]; listed as gentamicin): sensitive
O=C(O)c1cn(C2CC2)c2cc(N3CCNCC3)c(F)cc2c1=O [Ciprofloxacin]	Resistant	0.00	Note (susceptibility of MNH 46686 strain to the antibiotic) ([1]; listed as ciprofloxacin): resistant
CO/N=C(\C(=O)N[C@@H]1C(=O)N2C(C(=O)O)=C(CSc3nc(=O)c(=O)[nH]n3C)CS[C@H]12)c1csc(N)n1 [Ceftriaxone]	Resistant	0.00	Note (susceptibility of MNH 46686 strain to the antibiotic) ([1]; listed as ceftriaxone): resistant
O=C(N[C@H](CO)[C@H](O)c1ccc([N+](=O)[O-])cc1)C(Cl)Cl [Chloramphenicol]	Sensitive	18.45	Note (susceptibility of MNH 46686 strain to the antibiotic) ([1]; listed as chloramphenicol): sensitive
Trimethoprim-sulfamethoxazole	Resistant	0.00	Note (susceptibility of MNH 46686 strain to the antibiotic) ([1]; listed as trimethoprim-sulfamethoxazole): resistant
Penicillin	Sensitive	19.69	Note (susceptibility of MNH 46686 strain to the antibiotic) ([1]; listed as penicillin): sensitive
CN(C)[C@@H]1C(O)=C(C(N)=O)C(=O)[C@@]2(O)C(O)=C3C(=O)c4c(O)cccc4[C@@](C)(O)[C@H]3C[C@@H]12 [Tetracycline]	–	12.01	–

— US20250064864A1, “MICROBIAL STRAIN OF LACHNOSPIRACEAE, DRUG FOR PREVENTING OR TREATING TUMORS AND USE” (MOON (GUANGZHOU) BIOTECH CO., LTD., priority 2021, published 2025)
